The compounds below were run against JAK1 (recombinant purified GST-tagged catalytic domain) (Homo sapiens (Human), UniProt P23458) (assay: biochemical).
JAK1 (recombinant purified GST-tagged catalytic domain), sequence (P23458 875-1153): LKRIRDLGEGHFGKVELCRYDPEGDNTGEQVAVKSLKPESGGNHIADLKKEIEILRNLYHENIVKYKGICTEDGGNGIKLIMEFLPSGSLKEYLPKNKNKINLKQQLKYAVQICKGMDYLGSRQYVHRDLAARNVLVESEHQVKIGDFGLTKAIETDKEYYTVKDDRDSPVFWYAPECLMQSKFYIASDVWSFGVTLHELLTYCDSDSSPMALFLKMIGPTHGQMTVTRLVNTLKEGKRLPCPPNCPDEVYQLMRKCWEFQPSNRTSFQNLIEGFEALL
C[C@@]1(O)CC[C@H](n2cc(C(N)=O)c(Nc3ccc(Cl)cc3)n2)[C@@H](C#N)C1 (single isomer, unassigned) [Example 32-13, 3-[(4-chlorophenyl)amino]-1-[(1S,2S,4R or 1R,2R,4S)-2-cyano-4-hydroxy-4-methylcyclohexyl]-1H-pyrazole-4-carboxamide] gave an IC50 of 3 nM. Compound N#C[C@H]1C[C@@](O)(C2CC2)CC[C@@H]1n1cc(C(N)=O)c(Nc2ccc(Cl)cc2)n1 (single isomer, unassigned) [Example 32-14, 3-[(4-chlorophenyl)amino]-1-[(1S,2S,4R or 1R,2R,4S)-2-cyano-4-cyclopropyl-4-hydroxycyclohexyl]-1H-pyrazole-4-carboxamide] has an IC50 of 15 nM. C=C[C@@]1(O)CC[C@H](n2cc(C(N)=O)c(Nc3ccc(Cl)cc3)n2)[C@@H](C#N)C1 (single isomer, unassigned) [Example 32-16, 3-[(4-chlorophenyl)amino]-1-[(1S,2S,4R or 1R,2R,4S)-2-cyano-4-ethenyl-4-hydroxycyclohexyl]-1H-pyrazole-4-carboxamide] was tested, and the IC50 was 0.85 nM. With C[C@]1(O)CC[C@H](n2cc(C(N)=O)c(Nc3ccc(Cl)c(F)c3)n2)[C@@H](C#N)C1 (single isomer, unassigned) [Example 32-17, 3-[(4-chloro-3-fluorophenyl)amino]-1-[(1S,2S,4S or 1R,2R,4R)-2-cyano-4-hydroxy-4-methylcyclohexyl]-1H-pyrazole-4-carboxamide] the IC50 was 2 nM. Compound N#C[C@H]1C[C@@H](O)CC[C@@H]1n1cc(C(N)=O)c(Nc2ccc(Cl)c(F)c2)n1 (single isomer, unassigned) [Example 33-3, 3-[(4-chloro-3-fluorophenyl)amino]-1-[(1S,2S,4S or 1R,2R,4R)-2-cyano-4-hydroxycyclohexyl]-1H-pyrazole-4-carboxamide] has an IC50 of 2 nM. Compound CC(C)(CF)c1ccc(Nc2nn([C@H]3CC[C@H](O)C[C@@H]3C#N)cc2C(N)=O)cc1 (single isomer, unassigned) [Example 33-21, 1-[(1S,2S,4S or 1R,2R,4R)-2-cyano-4-hydroxycyclohexyl]-3-{[4-(2-fluoro-1,1-dimethylethyl)phenyl]amino}-1H-pyrazole-4-carboxamide] has an IC50 of 1 nM. Work on N#C[C@H]1C[C@@H](C(=O)N2CC(F)(F)C2)CC[C@@H]1n1cc(C(N)=O)c(Nc2ccc(Cl)cc2)n1 (single isomer, unassigned) [Example 35-6, 3-[(4-chlorophenyl)amino]-1-{(1S,2S,4S or 1R,2R,4R)-2-cyano-4-[(3,3-difluoroazetidin-1-yl)carbonyl]cyclohexyl}-1H-pyrazole-4-carboxamide] yielded an IC50 of 62 nM. For N#C[C@H]1C[C@@H](C(=O)N[C@H](C2CC2)C(F)(F)F)CC[C@@H]1n1cc(C(N)=O)c(Nc2ccc(Cl)cc2)n1 (single isomer, unassigned) [Example 35-14, 3-[(4-chlorophenyl)amino]-1-[(1S,2S,4S or 1R,2R,4R)-2-cyano-4-{[(1R)-1-cyclopropyl-2,2,2-trifluoroethyl]carbamoyl}cyclohexyl]-1H-pyrazole-4-carboxamide], the IC50 was 9 nM. In the case of N#C[C@@H]1C[C@H](C(=O)N2CC(F)(F)C2)CC[C@H]1n1cc(C(N)=O)c(Nc2ccc(Cl)cc2)n1 (single isomer, unassigned) [Example 35-15, 3-[(4-chlorophenyl)amino]-1-{(1R,2R,4R or 1S,2S,4S)-2-cyano-4-[(3,3-difluoroazetidin-1-yl)carbonyl]cyclohexyl}-1H-pyrazole-4-carboxamide], the IC50 is reported as 3 nM. Work on N#C[C@@H]1C[C@H](C(=O)N[C@@H](C2CC2)C(F)(F)F)CC[C@H]1n1cc(C(N)=O)c(Nc2ccc(Cl)cc2)n1 (single isomer, unassigned) [Example 35-16, 3-[(4-chlorophenyl)amino]-1-[(1R,2R,4R or 1S,2S,4S)-2-cyano-4-{[(1S)-1-cyclopropyl-2,2,2-trifluoroethyl]carbamoyl}cyclohexyl]-1H-pyrazole-4-carboxamide] yielded an IC50 of 9 nM.

Source: US8962608B2, “Cycloalkylnitrile pyrazole carboxamides as janus kinase inhibitors” (Merck Sharp & Dohme Corp., priority 2011, dated 2015)
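Also: biochemical assay with HTRF read-out.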
